From patent publication US20230346765A1, “METHODS OF TREATING XANTHINE OXIDASE-RELATED DISEASES WITH NIFLUMIC ACID AND DERIVATIVES THEREOF” (Baylor College of Medicine, priority 2020, published 2023)
Entries after “also recorded” stand apart in the source; their conditions may differ.

Experiments:
[1] = system: allantoxanamide-treated mice; test: Serum uric acid in acute hyperuricemia mouse model, allantoxanamide-treated (Example 4); format: in vivo, C57BL/6 mice; conditions: 50 mg/kg oral gavage once
Protocol: Adult C57BL/6 mice (15-25 g, 6-8 weeks old) were injected intraperitoneally (i.p.) with allantoxanamide at 100 mg/kg in 0.5% sodium carboxymethyl cellulose (CMC-Na) in a volume of 0.1 ml/10 g mouse body weight, to increase the serum uric acid level. Then the mice received a test compound at a concentration of 50 mg/kg in 1.0% polyethylene glycol 400 (PEG-400 in a volume of 0.1 ml/10 g mouse body weight), via oral gavage. Positive control mice received allopurinol at the same concentration as the test compound after i.p. injection of allantoxanamide. The negative control mice received PEG400 only after i.p. injection of allantoxanamide. Blood samples were collected through facial vein at 3 hours and 23 hours after the oral gavage (one time treatment). The blood was allowed to clot for 1 hour at room temperature and then centrifuged at 2350×g for 4 minutes to obtain serum. The serum was kept on ice and assayed immediately. Serum uric acid was determined using the phosphotungstate method, as known to those of skill in the art.
Allopurinol was used as a positive control. Allantoxanamide is a potent uricase inhibitor. […] Animal numbers used in this experiments [Negative control (baseline)=11; allantoxanamide=10, allopurinol (positive control)=4; niflumic acid=6; NFA-impurity E=6; talniflumate=6 and ethylniflutnate=6].

uricase −/− mice [2] = test: Serum uric acid in chronic hyperuricemia model, drug in drinking water; format: in vivo
Protocol: Serum uric acid (SUA) levels in uricase −/− mice were used to probe the effects of treatment with drinking water containing allopurinol, DHNB, and niflumic acid (NFA). Under the maintenance of allopurinol, adult uricase−/− mice show relatively low SUA (2-4 mg/dL). […] For the current experiments, the allopurinol water was stopped and normal water was supplied to uricase−/− mice for one week; and then uricase−/− mice were treated with DHNB (150 mg/L) or NFA (150 mg/L) in drinking water. Additionally, uricase−/− mice were given allopurinol (150 mg/L) as a positive control, while normal water was given for a negative control. All drug/waters were refreshed every week. Serum uric acid (SUA) levels of treated and control mice were determined 1-2 weeks, 4-6 weeks or 8-10 weeks after the treatment (see FIG. 10). Mouse blood (100˜200 μL) was taken via facial vein at the scheduled time point. The blood was allowed to clot for 1 hour at room temperature and then centrifuged at 2350 g for 4 minutes to obtain serum. The serum was kept on ice and assayed immediately by the tungsten phosphate method, as known to those of skill in the art.

uricase −/− mice [3] = test: Serum uric acid in chronic hyperuricemia model, drug in solid chow diet; format: in vivo; conditions: for SUA: 250 mg/Kg food, 6-8 weeks; for SUA levels versus regular chow control: 250 mg/kg food, 6 to 8 weeks, p<0.001
Protocol: An analogous study was performed to investigate the effects on SUA in uricase −/− mice treated with solid chow diet formulated with NFA, DHNB, and allopurinol. NFA, DHNB or allopurinol was formulated into solid chow diet (250 mg/kg food, LabDiet® 5V5R, ½″ pellet; Irradiated) from the company (Test Diet, St. Louis, MO and Lab Supply, Inc). Allopurinol water was stopped for uricase−/− mice, while normal water was supplied during experiments. Uricase−/− mice (1-2 months age, male and female), were given special solid chow die including NFA, DHNB or allopurinol (250 mg/kg food). In separate mice, special solid chow diet containing allopurinol (250 mg/kg food) was given for a positive control and regular solid chow diet was given for a negative control. Blood samples were obtained and processed at 6 or 8 weeks after the treatment (see FIG. 11). Serum uric acid was determined using the tungsten phosphate method.

[4] = system: allantoxanamide-treated mice; test: Hypouricemic effect in allantoxanamide induced hyperuricemic mice (Example 3); format: in vivo, C57BL/6 mice; conditions: 50 mg/kg oral gavage once; 1.5, 3 and 23 hours; p<0.05
Protocol: A hyperuricemia mouse model was used. Allantoxanamide, a potent uricase inhibitor, was used to induce hyperuricemia in mice in this study. Briefly, adult C57BL/6 mice (15-25 g. 6-8 weeks old) were injected intraperitoneally (i.p.) with allantoxanamide at 100 mg/kg or 200 mg/kg in 0.5% sodium carboxymethyl cellulose (CMC-Na) in a volume of 0.1 ml/10 g mouse body weight, to increase the serum uric acid level. The mice then received the test compound morniflumate at a concentration of 50 mg/kg in 1.0% polyethylene glycol 400 (PEG400 in a volume of 0.1 ml/10 g mouse body weight), via oral gavage. Positive control mice received allopurinol at the same concentration as test compound after i.p. injection of allantoxanamide. The negative control mice received PEG400 only after i.p, injection of allantoxanamide. Blood samples were collected through the facial vein at 1,5 hours, 3 hours, and 23 hours after the oral gavage. The blood was allowed to clot for 1 hour at room temperature and then centrifuged at 2350×g for 4 minutes to obtain serum. The serum was kept on ice and assayed immediately. Serum uric acid was determined using the phosphotungstate method, as known to those of skill in the art.

[5] = target: T1, Xanthine oxidase from bovine milk (Bos taurus, UniProt P80457); test: XO inhibition assay, cell-free, spectrophotometric monitoring of uric acid formation at 295 nm; format: biochemical; conditions: for type of inhibition / Ki: Lineweaver-Burk plot; for Ki: read-out: inhibitor constant (Ki); for inhibition of XO compared among 25 compounds and with allopurinol: each compound at 20 μM; for Vmax of XO: in the presence of different concentrations of the inhibitor; for initial rate of uric acid formation with longer pre-incubation times with XO: pre-incubated with XO for varying times, then xanthine added
T1 construct: Xanthine oxidase from bovine milk; purchased Sigma Chemical Co. (St. Louis, MO); host or cells: bovine milk
Excerpt: Xanthine oxidase from bovine milk, xanthine, allopurinol, niflumic acid (NFA), ethyl niflumate, 2-(3-chloro-5-(trifluoromethyl)-2-pyridylthio)pyridine-3-carboxylic acid, 2-[3-(trifluoromethyl)phenoxy]nicotinic acid, clonixin, flunixin, flufenamic acid, indomethacin, naproxen, diclofenac, aspirin, ibuprofen, talniflumate, 6-phenylamino-nicotinic acid, 2-phenylamino-nicotinic acid, N-phenylanthranilic acid, mefenamic acid, tolfenamic acid, meclofenamic acid, floctafenic acid, and dimethyl sulfoxide (DMSO) were obtained from Sigma Chemical Co. (St. Louis, MO). Morniflumate was purchased from Toronto Research Chemicals, Inc. (North York, Canada).
The uric acid absorbance at 295 nm was followed and the intensity data were collected every 30 seconds for 10 minutes. The initial rate of uric acid formation was generated for the reaction and converted to XO activity as 100% without any inhibitor (negative control). The inhibitory effect of NFA on XO activity was calculated as compared with the negative control (DMSO).
The formation of uric acid during the oxidation of xanthine by XO in the absence of NFA was recorded (see FIG. 2A). Uric acid formation was monitored as the absorbance at 295 nm over a period of 0-10 minutes during the oxidation of xanthine. The corresponding data were recorded for the oxidation of xanthine by XO in the presence of 10 μM NFA over a period of 0-10 minutes (see FIG. 2B).
Enzyme kinetics analysis of NFA—The inhibition kinetics of NFA on XO was determined by using the Lineweaver-Burk plot (see FIG. 3A). […] The maximum velocity (Vmax) and Michaelis-Menten constant of XO were determined in the presence of different concentrations of NFA (see FIG. 3B).
Dose-dependent effects—The dose-dependent effects on XO inhibition by NFA, NFA impurity E (labeled as “Impurity E”), flunixin, clonixin, and flufenamic acid were studied (see FIG. 5). Varying concentrations (0-40 μM) of each compound were pre-incubated with 20 nM of XO. Allopurinol was used as a positive control and DMSO was used as a negative control.
The inhibition kinetics of NFA impurity E on XO was determined by using the Lineweaver-Burk plot (see FIG. 7A). […] The maximum velocity (Vmax) and Michaelis-Menten constant of XO was determined in the presence of different concentrations of NFA […] (see FIG. 7B).
XO (20 nM) was pre-incubated with NFA, allopurinol or a combination of NFA and allopurinol for 1 minute in a phosphate buffer ([…] pH 7.2), followed by the addition of […] xanthine to start the reaction. XO activity was analyzed by measuring the production of uric acid.

[6] = Stability of NFA during pre-incubation with XO (absorbance at 287 nm); format: physicochemical; conditions: incubated with XO for 0 to 47 hours
[7] = 150 mg/L in drinking water, 1-2 weeks
[8] = 150 mg/L in drinking water, 4-6 weeks
[9] = 150 mg/L in drinking water, 8-10 weeks

T1 sequence (P80457 whole entry): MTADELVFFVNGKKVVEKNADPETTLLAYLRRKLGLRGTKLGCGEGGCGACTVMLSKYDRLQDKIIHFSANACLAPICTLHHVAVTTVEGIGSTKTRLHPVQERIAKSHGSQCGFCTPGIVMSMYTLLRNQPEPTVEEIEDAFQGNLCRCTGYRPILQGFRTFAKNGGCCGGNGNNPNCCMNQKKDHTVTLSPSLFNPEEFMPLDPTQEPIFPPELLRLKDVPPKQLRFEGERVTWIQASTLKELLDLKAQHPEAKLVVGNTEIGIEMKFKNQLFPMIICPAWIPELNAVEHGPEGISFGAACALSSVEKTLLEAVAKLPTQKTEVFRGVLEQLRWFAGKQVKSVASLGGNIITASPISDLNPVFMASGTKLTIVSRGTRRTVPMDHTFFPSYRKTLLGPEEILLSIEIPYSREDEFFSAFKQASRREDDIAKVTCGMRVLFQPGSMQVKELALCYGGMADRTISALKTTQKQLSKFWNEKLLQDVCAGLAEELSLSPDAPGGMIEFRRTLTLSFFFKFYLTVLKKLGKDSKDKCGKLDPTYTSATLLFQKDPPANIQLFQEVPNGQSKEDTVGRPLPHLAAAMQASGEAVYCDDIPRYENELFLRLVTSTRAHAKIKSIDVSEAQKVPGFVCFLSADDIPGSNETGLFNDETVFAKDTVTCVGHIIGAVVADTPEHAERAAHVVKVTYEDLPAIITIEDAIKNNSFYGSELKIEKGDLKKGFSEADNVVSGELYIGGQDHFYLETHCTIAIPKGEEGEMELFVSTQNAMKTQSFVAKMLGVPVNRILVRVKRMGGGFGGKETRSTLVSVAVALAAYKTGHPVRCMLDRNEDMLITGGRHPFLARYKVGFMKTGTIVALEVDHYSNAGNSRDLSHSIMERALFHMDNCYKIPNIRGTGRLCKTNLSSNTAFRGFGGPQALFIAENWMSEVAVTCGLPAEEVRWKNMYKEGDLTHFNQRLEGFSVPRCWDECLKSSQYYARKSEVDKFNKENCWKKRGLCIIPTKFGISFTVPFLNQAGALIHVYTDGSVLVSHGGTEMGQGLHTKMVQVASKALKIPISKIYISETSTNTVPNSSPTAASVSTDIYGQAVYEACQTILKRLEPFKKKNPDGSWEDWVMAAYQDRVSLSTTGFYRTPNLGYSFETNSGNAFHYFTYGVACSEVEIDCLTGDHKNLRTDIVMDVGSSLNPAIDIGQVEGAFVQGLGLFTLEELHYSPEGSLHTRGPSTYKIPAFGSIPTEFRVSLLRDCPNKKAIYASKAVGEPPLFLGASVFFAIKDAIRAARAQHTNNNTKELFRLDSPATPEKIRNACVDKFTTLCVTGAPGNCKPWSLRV

| Structure (SMILES) | SUA levels versus allantoxanamide control ([1]; 3-hour time point) | SUA levels versus allantoxanamide control ([1]; 23-hour time point) | SUA (uricase −/− mice [2]; [7]) | SUA (uricase −/− mice [2]; [8]) | SUA (uricase −/− mice [2]; [9]) | SUA (uricase −/− mice [3]) | SUA levels versus regular chow control (uricase −/− mice [3]) | also measured |
| --- | --- | --- | --- | --- | --- | --- | --- | --- |
| Oc1ncnc2[nH]ncc12 [Allopurinol, allopurinol] | significantly reduced SUA levels | significantly reduced SUA levels | 3.34 ± 0.87 mg/dL | 3.45 ± 0.49 mg/dL | 4.28 ± 0.80 mg/dL | 4.33 ± 1.15 mg/dL | significantly reduced SUA levels | SUA under maintenance of allopurinol (uricase −/− mice [2]; adult uricase−/− mice, maintenance allopurinol water): 2 to 4 mg/dL; SUA levels versus allantoxanamide control [4]: significantly reduced SUA levels |
| O=Cc1cc(O)c(O)c([N+](=O)[O-])c1 [DHNB, 3,4-dihydroxy-5-nitrobenzaldehyde] | – | – | 5.37 ± 1.06 mg/dL | 5.73 ± 0.76 mg/dL | 5.76 ± 0.81 mg/dL | 5.91 ± 1.30 mg/dL | significantly reduced SUA levels | – |
| O=C(O)c1ccc(Nc2cccc(C(F)(F)F)c2)nc1 [NFA impurity E] | significantly reduced SUA levels | significant effect | – | – | – | – | – | dose-dependent XO inhibition, rank ([5]; 0-40 μM pre-incubated with 20 nM XO): most potent amongst each of the compounds tested; type of inhibition [5]: mixed-type inhibition; Ki [5]: 30 nM; inhibition of XO compared among 25 compounds and with allopurinol [5]: most potent inhibitor amongst the compounds tested; also recorded: most effectively inhibit XO activity; Vmax of XO [5]: 0.044 µM/s; initial rate of uric acid formation with longer pre-incubation times with XO [5]: did not change |
| O=C(O)c1cccnc1Nc1cccc(C(F)(F)F)c1 [Niflumic acid, niflumic acid] | significantly reduced SUA levels | significant effect | 5.47 ± 1.21 mg/dL | 6.50 ± 0.64 mg/dL | 3.89 ± 0.20 mg/dL | 5.17 ± 1.28 mg/dL | significantly reduced SUA levels | SUA levels versus control mice (uricase −/− mice [2]; 150 mg/L in drinking water, all three time points, p<0.001): significantly reduced SUA levels; IC50 ([5]; 20 nM XO, read-out: IC50, inhibitory effect on XO activity): 2750 nM; type of inhibition [5]: mixed-type inhibition; Ki [5]: 368 nM; relative enzymatic activity ([5]; at 20 μM): approximately 20%; XO relative activity ([5]; at lower concentrations (≤3.3 μM)): 45%; inhibition of XO compared among 25 compounds and with allopurinol ([5]; listed as NFA): inhibitory effect similar to that of allopurinol; also recorded: most effectively inhibit XO activity; Vmax of XO [5]: 0.04 µM/s; initial rate of uric acid formation with longer pre-incubation times with XO [5]: did not change; effect of pre-incubation with XO on stability [6]: no effect on the stability |
| CCOC(=O)c1cccnc1Nc1cccc(C(F)(F)F)c1 [ethylniflumate, ethyl niflumate] | significantly reduced SUA levels | – | – | – | – | – | – | – |
| Cc1c(Nc2ncccc2C(=O)O)cccc1C(F)(F)F [flunixin] | – | – | – | – | – | – | – | inhibition of XO compared among 25 compounds and with allopurinol [5]: decreased its XO inhibitory activity |
| O=C(OCCN1CCOCC1)c1cccnc1Nc1cccc(C(F)(F)F)c1 [morniflumate, Morniflumate] | – | – | – | – | – | – | – | SUA levels versus allantoxanamide control [4]: significantly reduced SUA levels |
| O=C1OC(OC(=O)c2cccnc2Nc2cccc(C(F)(F)F)c2)c2ccccc21 (centres unmarked) [talniflumate] | significantly reduced SUA levels | significant effect | – | – | – | – | – | – |
